Reference: patent publication US20250215030A1, “STAT MODULATORS AND USES THEREOF” (Recludix Pharma, Inc., priority 2022, published 2025)
pIC50: −log10 of the molar value.

Columns and labels:
pSTAT3 (pY705-STAT3) = molecular target: T1, pSTAT3 (pY705-STAT3) (Homo sapiens, UniProt P40763); test: MSD-pSTAT-PBMC Assay (pSTAT3, IL-6 stimulated); format: cell-based; details: PBMC, compound 3 hrs, then 10 ng/mL IL-6 for 10 min; MSD pY705-STAT3; read-out: pSTAT3
T1 construct: host or cells: cryopreserved PBMC
Outline: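 Human PBMCs (50,000 cells/well for STAT3, 25,000 for STAT6) treated with compound 3 h, then stimulated 10 min with 10 ng/mL IL-6 or 1 ng/mL IL-4. Lysate pSTAT3 (pY705) or pSTAT6 (pY641) measured by MSD sandwich electrochemiluminescence. Signal minus unstimulated, normalized to DMSO; IC50 by variable-slope nonlinear regression.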

pSTAT6 (pY641-STAT6) = molecular target: T2, pSTAT6 (pY641-STAT6) (Homo sapiens, UniProt P42226); test: MSD-pSTAT-PBMC Assay (pSTAT6, IL-4 stimulated); format: cell-based; details: compound 3 hrs, then 1 ng/mL IL-4 for 10 min
T2 construct: host or cells: cryopreserved PBMC
T2 sequence (P42226 1-847): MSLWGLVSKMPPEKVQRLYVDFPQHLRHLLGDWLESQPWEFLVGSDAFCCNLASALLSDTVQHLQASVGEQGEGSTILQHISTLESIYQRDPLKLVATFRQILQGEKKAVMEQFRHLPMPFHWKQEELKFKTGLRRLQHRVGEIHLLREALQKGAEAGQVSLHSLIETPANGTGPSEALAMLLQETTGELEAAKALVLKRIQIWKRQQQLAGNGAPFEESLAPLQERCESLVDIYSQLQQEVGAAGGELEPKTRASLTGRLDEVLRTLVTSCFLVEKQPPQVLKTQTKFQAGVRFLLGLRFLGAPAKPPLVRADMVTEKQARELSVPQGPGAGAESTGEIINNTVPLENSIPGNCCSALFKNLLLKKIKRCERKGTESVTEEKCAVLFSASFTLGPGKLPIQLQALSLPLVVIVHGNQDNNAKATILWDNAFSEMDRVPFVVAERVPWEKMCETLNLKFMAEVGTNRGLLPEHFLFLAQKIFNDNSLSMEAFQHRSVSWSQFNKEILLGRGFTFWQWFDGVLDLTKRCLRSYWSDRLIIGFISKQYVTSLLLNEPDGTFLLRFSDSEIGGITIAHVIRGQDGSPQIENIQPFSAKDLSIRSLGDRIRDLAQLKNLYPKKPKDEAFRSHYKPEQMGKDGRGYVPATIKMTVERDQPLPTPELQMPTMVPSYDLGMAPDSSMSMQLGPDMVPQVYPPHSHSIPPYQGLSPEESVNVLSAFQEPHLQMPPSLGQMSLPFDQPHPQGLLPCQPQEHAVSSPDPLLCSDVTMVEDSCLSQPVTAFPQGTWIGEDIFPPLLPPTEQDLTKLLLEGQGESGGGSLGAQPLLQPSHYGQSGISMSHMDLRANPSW
Text: Cryopreserved Peripheral Blood Mononuclear Cells (PBMC) are from AllCells. Recombinant Human IL-4 and IL-6 are from Peprotech. Mouse monoclonal anti-STAT3 antibody, rabbit monoclonal anti-pY705-STAT3 antibody, rabbit monoclonal Anti-pY641-STAT6 antibody, and lysis buffer are from Cell Signaling Technology (CST). Mouse monoclonal anti-STAT6 antibody is from BioLegend. Assay plates, blocker, and anti-rabbit secondary antibody are from Meso Scale Discovery (MSD).
Cryopreserved PBMCs were thawed out and allowed to recover overnight in IMDM+10% heat-inactivated FBS prior to plating 50,000 (STAT3) or 25,000 (STAT6) cells per well in 96-well U-bottom tissue culture plates. Cells were treated with compound for 3 hrs, then stimulated with 10 ng/mL IL-6 (STAT3) or 1 ng/mL IL-4 (STAT6) for 10 min. Cells were then spun down and washed with ice-cold PBS prior to lysing the cell pellet with 1× lysis buffer (CST) with 1× HALT protease and phosphatase inhibitor cocktail (Thermo). Lysates were transferred to and incubated overnight at 4° C. with shaking in QuickPlex 96-well high bind assay plates (MSD) pre-coated overnight with 30 μL per well of 0.6 μg/mL mouse monoclonal anti-STAT3 antibody (STAT3) or 2 μg/mL mouse monoclonal anti-STAT6 antibody (STAT6) in 1×PBS, and pre-blocked for 1 hour with 3% Blocker-A (MSD). Captured protein in the assay plates were then washed and probed with 25 μL per well of 0.25 μg/ml rabbit monoclonal anti-pY705-STAT3 antibody (STAT3) or 0.18 μg/ml rabbit monoclonal Anti-pY641-STAT6 antibody (STAT6) in 1% Blocker-A for 1 hour at room temperature with shaking, then washed and probed with 25 ul per well of 1 ug/mi Sulfo-TAG Labeled Goat Anti-Rabbit Antibody (MSD) in 1% Blocker-A for 1 hour at room temperature with shaking. Assay plates were then washed and 150 μL of 1× Read Buffer-T (MSD) was added to each well prior to reading on an SQ120 MSD Plate Reader. Assay signal from each sample was subtracted by the signal from unstimulated control wells and normalized to DMSO control wells. IC50 values were calculated using Graph Pad Prism Dose-Response Nonlinear Regression with variable slope. For both pSTAT3 and pSTAT6 A=≤100 nM; B=>100-1000 nM; C=>1000-3000 nM; and D=>3 μM.

T1 sequence (P40763 whole entry): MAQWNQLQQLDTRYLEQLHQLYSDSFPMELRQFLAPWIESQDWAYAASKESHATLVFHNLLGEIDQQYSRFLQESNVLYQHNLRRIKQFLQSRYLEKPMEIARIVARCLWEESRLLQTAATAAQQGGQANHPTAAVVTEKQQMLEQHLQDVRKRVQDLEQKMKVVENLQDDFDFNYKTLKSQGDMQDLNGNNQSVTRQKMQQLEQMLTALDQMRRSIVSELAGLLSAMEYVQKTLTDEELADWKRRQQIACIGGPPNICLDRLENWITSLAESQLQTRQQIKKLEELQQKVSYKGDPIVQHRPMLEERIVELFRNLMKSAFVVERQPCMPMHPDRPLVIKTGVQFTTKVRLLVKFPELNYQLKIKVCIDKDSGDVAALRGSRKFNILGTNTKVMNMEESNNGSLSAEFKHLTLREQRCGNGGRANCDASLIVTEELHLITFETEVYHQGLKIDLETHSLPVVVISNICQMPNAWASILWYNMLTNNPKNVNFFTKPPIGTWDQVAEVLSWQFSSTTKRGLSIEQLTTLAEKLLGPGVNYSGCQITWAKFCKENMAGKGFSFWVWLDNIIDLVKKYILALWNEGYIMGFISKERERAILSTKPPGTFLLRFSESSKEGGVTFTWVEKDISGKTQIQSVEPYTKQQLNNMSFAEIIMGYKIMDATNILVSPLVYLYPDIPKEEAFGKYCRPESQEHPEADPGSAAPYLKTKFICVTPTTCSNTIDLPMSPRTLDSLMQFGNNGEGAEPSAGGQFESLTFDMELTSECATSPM

Row | Compound | pIC50 (pSTAT3 (pY705-STAT3)) | pIC50 (pSTAT6 (pY641-STAT6))
1 | CC(C)OC(=O)[C@H](C)NP(=O)(Cc1ccc2sc(C(=O)N[C@H]3C[C@@H]4C[C@@H]4C[C@H]4CC[C@@H](C(=O)N5CC(C(=O)N6CCOCC6)C5)N4C3=O)cc2c1)Oc1ccccc1 (stereo partly drawn) [Compound 154, isopropyl (((2-(((3S,6S,7aS, 8aR,9aR)-3-(3-(morpholine-4-carbonyl)azetidine-1-carbonyl)-5-oxodecahydro-1H-cyclopropa[d]pyrrolo[1,2-a]azocin-6-yl)carbamoyl)benzo[b]thiophen-5-yl)methyl) (phenoxy) (phosphoryl)-L-alaninate] | 6.00 to 7.00 | < 5.52
2 | CCCC(=O)SCCOP(=O)(Cc1ccc2sc(C(=O)N[C@H]3C[C@@H]4C[C@@H]4C[C@H]4CC[C@@H](C(=O)N5CC(n6ccnc6)C5)N4C3=O)cc2c1)OCCSC(=O)CCC [Compound 158, S,S′-(((((2-(((3S,6S,7aS, 8aR,9aR)-3-(3-(1H-imidazol-1-yl)azetidine-1-carbonyl)-5-oxodecahydro-1H-cyclopropa[d]pyrrolo[1,2-a]azocin-6-yl)carbamoyl)benzo[b]thiophen-5-yl)methyl)phosphoryl)bis(oxy))bis(ethane-2,1-diyl)) dibutanethioate] | 6.00 to 7.00 | < 5.52
3 | O=C(OCOP(=O)(OCOC(=O)OC1CCOCC1)C(F)(F)c1ccc2sc(C(=O)N[C@H]3C[C@@H]4C[C@@H]4C[C@H]4CC[C@@H](C(=O)N5CC(C(=O)N6CCOCC6)C5)N4C3=O)cc2c1)OC1CCOCC1 [Compound 162, (((difluoro(2-(((3S,6S,7aS, 8aR,9aR)-3-(3-(morpholine-4-carbonyl)azetidine-1-carbonyl)-5-oxodecahydro-1H-cyclopropa [d]pyrrolo[1,2-a]azocin-6-yl)carbamoyl)benzo[b]thiophen-5-yl)methyl)phosphoryl)bis(oxy)) bis(methylene) bis(tetrahydro-2H-pyran-4-yl) bis(carbonate)] | 6.00 to 7.00 | < 5.52
4 | CC(C)OC(=O)[C@H](Cc1ccccc1)NP(=O)(Oc1ccccc1)C(F)(F)c1ccc2sc(C(=O)N[C@H]3C[C@@H]4C[C@@H]4C[C@H]4CC[C@@H](C(=O)N5CC(C(=O)N6CCOCC6)C5)N4C3=O)cc2c1 (stereo partly drawn) [Compound 165, isopropyl ((difluoro(2-(((3S,6S,7aS, 8aR,9aR)-3-(3-(morpholine-4-carbonyl)azetidine-1-carbonyl)-5-oxodecahydro-1H-cyclopropa[d]pyrrolo[1,2-a]azocin-6-yl)carbamoyl)benzo[b]thiophen-5-yl)methyl) (phenoxy)phosphoryl)-L-phenylalaninate] | 5.52 to 6.00 | < 5.52
5 | COCC(C)(C)OC(=O)OCOP(=O)(OCOC(=O)OC(C)(C)COC)C(F)(F)c1ccc2sc(C(=O)N[C@H]3C[C@H]4C[C@H]4C[C@H]4CC[C@@H](C(=O)N5CC(c6cccnc6)C5)N4C3=O)cc2c1 [Compound 168, (((difluoro(2-(((3S,6S,7aR, 8aS,9aR)-5-oxo-3-(3-(pyridin-3-yl)azetidine-1-carbonyl)decahydro-1H-cyclopropa[d]pyrrolo[1,2-a]azocin-6-yl)carbamoyl)benzo[b]thiophen-5-yl)methyl)phosphoryl)bis(oxy)) bis(methylene) bis(1-methoxy-2-methylpropan-2-yl) bis(carbonate)] | > 7.00 | < 5.52

Next, values leading:

Row | pIC50 (pSTAT3 (pY705-STAT3)) | pIC50 (pSTAT6 (pY641-STAT6)) | Compound
6 | > 7.00 | 5.52 to 6.00 | CC(C)(C)C(=O)OCOP(=O)(Cc1ccc2sc(C(=O)N[C@H]3C[C@H]4C[C@H]4C[C@H]4CC[C@@H](C(=O)N5CC(c6ccccn6)C5)N4C3=O)cc2c1)OCOC(=O)C(C)(C)C [Compound 155, ((((2-(((3S,6S,7aR, 8aS,9aR)-5-oxo-3-(3-(pyridin-2-yl)azetidine-1-carbonyl)decahydro-1H-cyclopropa[d]pyrrolo[1,2-a]azocin-6-yl)carbamoyl)benzo[b]thiophen-5-yl)methyl)phosphoryl)bis(oxy)) bis(methylene) bis(2,2-dimethyl-pronanoate)]
7 | > 7.00 | < 5.52 | CC(C)(C)C(=O)OCOP(=O)(Cc1ccc2sc(C(=O)N[C@H]3C[C@@H]4C[C@@H]4C[C@H]4CC[C@@H](C(=O)N5CC(n6ccnc6)C5)N4C3=O)cc2c1)OCOC(=O)C(C)(C)C [Compound 156, ((((2-(((3S,6S,7aS, 8aR,9aR)-3-(3-(1H-imidazol-1-yl)azetidine-1-carbonyl)-5-oxodecahydro-1H-cyclopropa[d]pyrrolo[1,2-a]azocin-6-yl)carbamoyl)benzo[b]thiophen-5-yl)methyl)phosphoryl)bis(oxy)) bis(methylene) bis(2,2-dimethyl-propanoate)]
8 | > 7.00 | < 5.52 | CC(C)OC(=O)OCOP(=O)(Cc1ccc2sc(C(=O)N[C@H]3C[C@@H]4C[C@@H]4C[C@H]4CC[C@@H](C(=O)N5CC(n6ccnc6)C5)N4C3=O)cc2c1)OCOC(=O)OC(C)C [Compound 157, ((((2-(((3S,6S,7aS, 8aR,9aR)-3-(3-(1H-imidazol-1-yl)azetidine-1-carbonyl)-5-oxodecahydro-1H-cyclopropa[d]pyrrolo[1,2-a]azocin-6-yl)carbamoyl)benzo[b]thiophen-5-yl)methyl)phosphoryl)bis(oxy)) bis(methylene) diisopropyl bis(carbonate)]
9 | > 7.00 | < 5.52 | COCC(C)(C)OC(=O)OCOP(=O)(OCOC(=O)OC(C)(C)COC)C(F)(F)c1ccc2sc(C(=O)N[C@H]3C[C@@H]4C[C@@H]4C[C@H]4CC[C@@H](C(=O)N5CC(C(=O)N6CCOCC6)C5)N4C3=O)cc2c1 [Compound 161, (((difluoro(2-(((3S,6S,7aS, 8aR,9aR)-3-(3-(morpholine-4-carbonyl)azetidine-1-carbonyl)-5-oxodecahydro-1H-cyclopropa [d]pyrrolo[1,2-a]azocin-6-yl)carbamoyl)benzo[b]thiophen-5-yl)methyl)phosphoryl)bis(oxy)) bis(methylene) bis(1-methoxy-2-methylpropan-2-yl) bis(carbonate)]
10 | > 7.00 | < 5.52 | O=C(OCOP(=O)(OCOC(=O)OC1CCOCC1)C(F)(F)c1ccc2sc(C(=O)N[C@H]3C[C@H]4C[C@H]4C[C@H]4CC[C@@H](C(=O)N5CC(c6cccnc6)C5)N4C3=O)cc2c1)OC1CCOCC1 [Compound 166, (((difluoro(2-(((3S,6S,7aR, 8aS,9aR)-5-oxo-3-(3-(pyridin-3-yl)azetidine-1-carbonyl)decahydro-1H-cyclopropa[d]pyrrolo[1,2-a]azocin-6-yl)carbamoyl)benzo[b]thiophen-5-yl)methyl)phosphoryl)bis(oxy)) bis(methylene) bis(tetrahydro-2H-pyran-4-yl) bis(carbonate)]
